Experimental findings from patent US20230104936A1, “TRPML MODULATORS” (Casma Therapeutics, Inc., priority 2019, published 2023) are described below.

As usually defined, the AC50 is the midpoint of the concentration-response curve, whichever way the signal moves.

The assay deals with TFEB. The experiment in a line: TFEB nuclear translocation assay, HeLa wt cells. It is filed as cell-based. The note with it: Homo sapiens, HeLa, 2 h, 2 hrs compound treatment, Table 1 does not say HeLa wt or TRPML1 KO. The method, boiled down:
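Using 20× epifluorescence of fixed, anti-TFEB-stained HeLa wt cells treated 2 hrs with compound, nuclear versus perinuclear ring intensity was quantified over four fields per well, yielding AC50 values.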
On to `O=S(=O)(Nc1cc(Cl)ccc1N1CCC2(C1)OCc1ccccc12)c1ccc2c(c1)CCC2` (stereo not shown) [Compound A-357, N-(5-chloro-2-{3H-spiro[2-benzofuran-1,3′-pyrrolidin]-1′-yl}phenyl)-2,3-dihydro-1H-indene-5-sulfonamide], for which the AC50 is ≥ 10 µM.

In the case of `CN(C)S(=O)(=O)c1ccc(S(=O)(=O)Nc2ccccc2N2CCC(c3cccc(F)c3C(=O)O)CC2)cc1` [Compound A-358, 2-(1-{2-[4-(dimethylsulfamoyl)benzenesulfonamido]phenyl}piperidin-4-yl)-6-fluorobenzoic acid], the AC50 was ≥ 10 µM.

`CN(C(=O)C1CCN(c2ccccc2NS(=O)(=O)c2ccc(S(=O)(=O)N(C)C)cc2)CC1)C(C)(C)C` [Compound A-359, N-tert-butyl-1-{2-[4-(dimethylsulfamoyl)benzenesulfonamido]phenyl}-N-methylpiperidine-4-carboxamide]: the AC50 is ≤ 2 µM.

As for `CN(C(=O)C1(C)CCN(c2ccccc2NS(=O)(=O)c2ccc(S(=O)(=O)N(C)C)cc2)CC1)C(C)(C)C` [Compound A-360, N-tert-butyl-1-{2-[4-(dimethylsulfamoyl)benzenesulfonamido]phenyl}-N,4-dimethylpiperidine-4-carboxamide], the AC50 was ≤ 2 µM.

Turning to `CN(C)S(=O)(=O)c1ccc(S(=O)(=O)Nc2ccccc2N2CCC(C)(C(=O)NC(C)(C)C)CC2)cc1` [Compound A-361, N-tert-butyl-1-{2-[4-(dimethylsulfamoyl)benzenesulfonamido]phenyl}-4-methylpiperidine-4-carboxamide], the AC50 is ≤ 2 µM.

Consider `O=S(=O)(Nc1cc(Cl)ccc1N1CCCC2(CCCO2)C1)c1ccc2c(c1)CCC2` (stereo not shown) [Compound A-362, N-(5-chloro-2-{1-oxa-7-azaspiro[4.5]decan-7-yl}phenyl)-2,3-dihydro-1H-indene-5-sulfonamide], for which the AC50 is ≤ 2 µM.

As to `COCCS(=O)(=O)Nc1cccc(Cl)c1N1CCOCC1` [Compound A-364, N-[3-chloro-2-(morpholin-4-yl)phenyl]-2-methoxyethane-1-sulfonamide], the AC50 was ≥ 10 µM.

In the case of `O=S(=O)(Cc1ccon1)Nc1cccc(Cl)c1N1CCOCC1` [Compound A-365, N-[3-chloro-2-(morpholin-4-yl)phenyl]-1-(1,2-oxazol-3-yl)methanesulfonamide], the concentration at half-maximal activity (AC50) is ≥ 10 µM.

Regarding `O=C(Nc1cccc(Cl)c1N1CCOCC1)c1ccc2c(c1)CCC2` [Compound A-366, N-[3-chloro-2-(morpholin-4-yl)phenyl]-2,3-dihydro-1H-indene-5-carboxamide], the AC50 was ≥ 10 µM.

With `COc1cccc(S(=O)(=O)Nc2cccc(Cl)c2N2CCOCC2)c1` [Compound A-367, N-[3-chloro-2-(morpholin-4-yl)phenyl]-3-methoxybenzene-1-sulfonamide], the AC50 is 2.01 to 8 µM.

`O=S(=O)(Cc1ccc(F)c(Cl)c1)Nc1cccc(Cl)c1N1CCOCC1` [Compound A-368, N-[3-chloro-2-(morpholin-4-yl)phenyl]-1-(3-chloro-4-fluorophenyl)methanesulfonamide] gave an AC50 of 2.01 to 8 µM.

As to `O=S(=O)(Nc1cccc(Cl)c1N1CCOCC1)c1cnn2c1CCCC2` [Compound A-369, N-[3-chloro-2-(morpholin-4-yl)phenyl]-4H,5H,6H,7H-pyrazolo[1,5-a]pyridine-3-sulfonamide], the AC50 is ≥ 10 µM.

With `CN(C)C1Cc2ccccc2C12CCN(c1ccccc1NS(=O)(=O)c1ccc(S(=O)(=O)N(C)C)cc1)CC2` (stereo not shown) [Compound A-370, N4-{2-[2-(dimethylamino)-2,3-dihydrospiro[indene-1,4′-piperidin]-1′-yl]phenyl}-N1,N1-dimethylbenzene-1,4-disulfonamide], the AC50 was ≤ 2 µM.

`COc1ccc(CN2C(=O)C(c3ccc(Cl)cc3F)Oc3ccccc32)cc1` (stereo not shown) [Compound A-371, 2-(4-chloro-2-fluorophenyl)-4-(4-methoxybenzyl)-2H-benzo[b][1,4]oxazin-3(4H)-one]: the AC50 was ≤ 2 µM.

In turn, `O=S(=O)(Nc1ccccc1N1CCCC1)c1ccc2c(c1)OCCCO2` [Compound A-372, N-[2-(pyrrolidin-1-yl)phenyl]-3,4-dihydro-2H-1,5-benzodioxepine-7-sulfonamide] came in with an AC50 of 2.01 to 8 µM.

As to `O=S(=O)(Nc1cccc(Cl)c1N1CCOCC1)c1cccc(C2CC2)c1` [Compound A-390, N-[3-chloro-2-(morpholin-4-yl)phenyl]-3-cyclopropylbenzene-1-sulfonamide], the AC50 was ≤ 2 µM.

On to `O=S(=O)(Nc1cccc(Cl)c1N1CCOCC1)c1ccc(C2CC2)cc1` [Compound A-391, N-[3-chloro-2-(morpholin-4-yl)phenyl]-4-cyclopropylbenzene-1-sulfonamide], for which the AC50 was in the range of 2.01 to 8 µM.

Regarding `O=S(=O)(Nc1cccc(Cl)c1N1CCOCC1)c1ccccc1C1CC1` [Compound A-392, N-[3-chloro-2-(morpholin-4-yl)phenyl]-2-cyclopropylbenzene-1-sulfonamide], the AC50 lay within 2.01 to 8 µM.

The compound `O=S(=O)(CC1CCC2(CCCC2)O1)Nc1cccc(Cl)c1N1CCOCC1` (stereo not shown) [Compound A-393, N-[3-chloro-2-(morpholin-4-yl)phenyl]-1-{1-oxaspiro[4.4]nonan-2-yl}methanesulfonamide] registered an AC50 of 8.01 to 9.99 µM.

Regarding `O=S(=O)(CC12CC3CC(CC(C3)C1)C2)Nc1cccc(Cl)c1N1CCOCC1` [Compound A-394, 1-(adamantan-1-yl)-N-[3-chloro-2-(morpholin-4-yl)phenyl]methanesulfonamide], the AC50 was 2.01 to 8 µM.

Turning to `O=S(=O)(Nc1cc(Cl)ccc1N1CCC2(COC2)C1)c1ccc2c(c1)CCC2` [Compound A-395, N-(5-chloro-2-{2-oxa-6-azaspiro[3.4]octan-6-yl}phenyl)-2,3-dihydro-1H-indene-5-sulfonamide], the AC50 is ≥ 10 µM.

For the compound `O=S(=O)(Nc1cc(Cl)ccc1N1CC2(CCC2)OC2(CCC2)C1)c1ccc2c(c1)CCC2` [Compound A-396, N-(5-chloro-2-{5-oxa-11-azadispiro[3.1.3^6.3^4]dodecan-11-yl}phenyl)-2,3-dihydro-1H-indene-5-sulfonamide], the AC50 is ≤ 2 µM.

Take `O=S(=O)(Nc1cc(Cl)ccc1N1CC2(CCC2)C1C1CCCO1)c1ccc2c(c1)CCC2` (stereo not shown) [Compound A-397, N-{5-chloro-2-[1-(oxolan-2-yl)-2-azaspiro[3.3]heptan-2-yl]phenyl}-2,3-dihydro-1H-indene-5-sulfonamide]: the AC50 lay within 2.01 to 8 µM.

For the compound `CN1Cc2ccccc2C2(CCN(c3ccccc3NS(=O)(=O)c3ccc(S(C)(=O)=O)cc3)CC2)C1` [Compound A-398, 4-methanesulfonyl-N-(2-{2-methyl-2,3-dihydro-1H-spiro[isoquinoline-4,4′-piperidin]-1′-yl}phenyl)benzene-1-sulfonamide; formic acid], the AC50 lay within 2.01 to 8 µM.

For the compound `CN(C)S(=O)(=O)c1ccc(S(=O)(=O)Nc2ccccc2N2CCN(C(=O)C34CC5CC(CC(C5)C3)C4)CC2)cc1` [Compound A-399, N4-{2-[4-(adamantane-1-carbonyl)piperazin-1-yl]phenyl}-N1,N1-dimethylbenzene-1,4-disulfonamide], the AC50 is ≤ 2 µM.

In turn, `CN(C)S(=O)(=O)c1ccc(S(=O)(=O)Nc2cc(Cl)ccc2N2CCN(C(=O)C(C)(C)C)CC2)cc1` [Compound A-400, N4-{5-chloro-2-[4-(2,2-dimethylpropanoyl)piperazin-1-yl]phenyl}-N1,N1-dimethylbenzene-1,4-disulfonamide] displayed an AC50 of 2.01 to 8 µM.

For the compound `CN(C)S(=O)(=O)c1ccc(S(=O)(=O)Nc2ccccc2N2CCC(O)(c3ccncc3F)CC2)cc1` [Compound A-401, N4-{2-[4-(3-fluoropyridin-4-yl)-4-hydroxypiperidin-1-yl]phenyl}-N1,N1-dimethylbenzene-1,4-disulfonamide], the AC50 is ≥ 10 µM.

`CS(=O)(=O)c1ccc(S(=O)(=O)Nc2ccccc2N2CCC3(CC2)OCCc2ccccc23)cc1` [Compound A-402, N-(2-{3,4-dihydrospiro[2-benzopyran-1,4′-piperidin]-1′-yl}phenyl)-4-methanesulfonylbenzene-1-sulfonamide] came in with a concentration at half-maximal activity (AC50) of 2.01 to 8 µM.

For the compound `CS(=O)(=O)c1ccc(S(=O)(=O)Nc2ccccc2N2CCC3(CC2)CN(Cc2ccncc2)c2cc(F)ccc23)cc1` [Compound A-403, N-(2-{6-fluoro-1-[(pyridin-4-yl)methyl]-1,2-dihydrospiro[indole-3,4′-piperidin]-1′-yl}phenyl)-4-methanesulfonylbenzene-1-sulfonamide], the AC50 is 2.01 to 8 µM.

`CN1CCC(N(C)S(=O)(=O)c2ccc(NC(=O)COc3ccccc3-c3ccccc3)cc2)CC1` [Compound A-404, 2-{[1,1′-biphenyl]-2-yloxy}-N-{4-[methyl(1-methylpiperidin-4-yl)sulfamoyl]phenyl}acetamide] gave an AC50 of 2.01 to 8 µM.

For `O=S(=O)(Nc1cc(Cl)ccc1N1CCCC12CCCOC2)c1ccc2c(c1)CCC2` (stereo not shown) [Compound A-405, N-(5-chloro-2-{7-oxa-1-azaspiro[4.5]decan-1-yl}phenyl)-2,3-dihydro-1H-indene-5-sulfonamide], the AC50 is 2.01 to 8 µM.

As to `CN(C)S(=O)(=O)c1ccc(S(=O)(=O)Cc2ccccc2N2CCN(Cc3ccccc3)CC2)cc1` [Compound A-406, 4-((2-(4-benzylpiperazin-1-yl)benzyl)sulfonyl)-N,N-dimethylbenzenesulfonamide], the AC50 fell in the range of 2.01 to 8 µM.

Take `CS(=O)(=O)c1ccc(S(=O)(=O)Nc2ccccc2N2CCC3(CC2)CN(Cc2cccnc2)c2cc(F)ccc23)cc1` [Compound A-407, N-(2-{6-fluoro-1-[(pyridin-3-yl)methyl]-1,2-dihydrospiro[indole-3,4′-piperidin]-1′-yl}phenyl)-4-methanesulfonylbenzene-1-sulfonamide]: the AC50 is ≤ 2 µM.

Take `Cc1ccc(S(=O)(=O)Nc2ccccc2N2CCC(O)(c3ccc(F)cn3)CC2)cc1` [Compound A-408, N-{2-[4-(5-fluoropyridin-2-yl)-4-hydroxypiperidin-1-yl]phenyl}-4-methylbenzene-1-sulfonamide]: the AC50 was ≥ 10 µM.
